Experimental data as given in US8410153B2, “Naphthalene isoxazoline invertebrate pest control agents” (E.I. du Pont de Nemours and Company, priority 2007, dated 2013).

Assays:
Format in all cases: in vivo
[1] = tested on: diamondback moth (Plutella xylostella); test: Test A: control of diamondback moth on radish plant, foliar spray; settings: sprayed at 50 ppm, held 6 days
Summary of the method: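 Radish plants 12–14 days old, pre-infested with about 50 neonate larvae, sprayed at 50 ppm in 10% acetone/water with 300 ppm X-77 surfactant; three replicates. After 6 days at 25° C and 70% RH, feeding damage was scored visually and mortality counted.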

[2] = tested on: fall armyworm (Spodoptera frugiperda); test: Test B: control of fall armyworm on corn (maize) plant, foliar spray; settings: sprayed at 50 ppm
Summary of the method: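 4-5-day-old corn plants pre-infested with 10-15 1-day-old larvae on insect diet, then sprayed with compound at 50 ppm in 10% acetone/90% water with 300 ppm surfactant, three replicates. Held 6 days at 25° C, 70% RH; feeding damage assessed visually and mortality rated.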

[3] = tested on: western flower thrips (Frankliniella occidentalis); test: Test E: control of western flower thrips on Soleil bean plant, contact and/or systemic; settings: held 6 days
Summary of the method: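 5–7-day-old Soleil bean plants were sprayed at 250 or 50 ppm in 10% acetone/90% water with 300 ppm X-77 surfactant, three replicates. After drying 1 h, 22–27 adult thrips were added per unit. Mortality and plant damage were rated after 6 days at 25 °C and 45–55% RH.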

Measured: levels of control efficacy (20% or less feeding damage or 80% or more mortality)

COCCNC(=O)c1ccc(C2=NOC(c3cc(Cl)cc(Cl)c3)(C(F)(F)F)C2)c2ccccc12 (stereo not drawn) [Compound 28]
very good to excellent: [1] | [2] | [3]; sprayed at 50 ppm | [3]; sprayed at 250 ppm

CSCC(C)NC(=O)c1ccc(C2=NOC(c3cc(Cl)cc(Cl)c3)(C(F)(F)F)C2)c2ccccc12 (stereo not drawn) [Compound 30]
very good to excellent: [1] | [2] | [3]; sprayed at 250 ppm

O=C(CNC(=O)c1ccc(C2=NOC(c3cc(Cl)cc(C(F)(F)F)c3)(C(F)(F)F)C2)c2ccccc12)NCC(F)(F)F (stereo not drawn) [Compound 62]
very good to excellent: [1] | [2] | [3]; sprayed at 50 ppm | [3]; sprayed at 250 ppm

CC(C)NC(=O)CNC(=O)c1ccc(C2=NOC(c3cc(Cl)cc(C(F)(F)F)c3)(C(F)(F)F)C2)c2ccccc12 (stereo not drawn) [Compound 63]
very good to excellent: [1] | [2] | [3]; sprayed at 50 ppm | [3]; sprayed at 250 ppm

CSCCNC(=O)c1ccc(C2=NOC(c3cc(Cl)cc(C(F)(F)F)c3)(C(F)(F)F)C2)c2ccccc12 (stereo not drawn) [Compound 65]
very good to excellent: [1] | [2] | [3]; sprayed at 50 ppm | [3]; sprayed at 250 ppm

CS(=O)(=O)CCNC(=O)c1ccc(C2=NOC(c3cc(Cl)cc(C(F)(F)F)c3)(C(F)(F)F)C2)c2ccccc12 (stereo not drawn) [Compound 66]
very good to excellent: [1] | [2] | [3]; sprayed at 50 ppm | [3]; sprayed at 250 ppm

CC(O)CNC(=O)c1ccc(C2=NOC(c3cc(C(F)(F)F)cc(C(F)(F)F)c3)(C(F)(F)F)C2)c2ccccc12 (stereo not drawn) [Compound 67]
very good to excellent: [1] | [2] | [3]; sprayed at 50 ppm | [3]; sprayed at 250 ppm

C[S+]([O-])CCNC(=O)c1ccc(C2=NOC(c3cc(C(F)(F)F)cc(C(F)(F)F)c3)(C(F)(F)F)C2)c2ccccc12 (stereo not drawn) [Compound 79]
very good to excellent: [1] | [2] | [3]; sprayed at 50 ppm | [3]; sprayed at 250 ppm

CC(NC(=O)c1ccc(C2=NOC(c3cc(C(F)(F)F)cc(C(F)(F)F)c3)(C(F)(F)F)C2)c2ccccc12)C(=O)NCC(F)(F)F (stereo not drawn) [Compound 85]
very good to excellent: [1] | [2] | [3]; sprayed at 50 ppm | [3]; sprayed at 250 ppm

CNC(=O)C(C)NC(=O)c1ccc(C2=NOC(c3cc(C(F)(F)F)cc(C(F)(F)F)c3)(C(F)(F)F)C2)c2ccccc12 (stereo not drawn) [Compound 86]
very good to excellent: [1] | [2] | [3]; sprayed at 50 ppm | [3]; sprayed at 250 ppm

CC(C)NC(=O)C(C)NC(=O)c1ccc(C2=NOC(c3cc(C(F)(F)F)cc(C(F)(F)F)c3)(C(F)(F)F)C2)c2ccccc12 (stereo not drawn) [Compound 87]
very good to excellent: [1] | [2] | [3]; sprayed at 250 ppm

CCNC(=O)C(C)NC(=O)c1ccc(C2=NOC(c3cc(C(F)(F)F)cc(C(F)(F)F)c3)(C(F)(F)F)C2)c2ccccc12 (stereo not drawn) [Compound 88]
very good to excellent: [1] | [2] | [3]; sprayed at 50 ppm | [3]; sprayed at 250 ppm

CC(C)CNC(=O)C(C)NC(=O)c1ccc(C2=NOC(c3cc(C(F)(F)F)cc(C(F)(F)F)c3)(C(F)(F)F)C2)c2ccccc12 (stereo not drawn) [Compound 90]
very good to excellent: [1] | [2] | [3]; sprayed at 50 ppm

CCSCCNC(=O)c1ccc(C2=NOC(c3cc(C(F)(F)F)cc(C(F)(F)F)c3)(C(F)(F)F)C2)c2ccccc12 (stereo not drawn) [Compound 92]
very good to excellent: [1] | [2] | [3]; sprayed at 50 ppm | [3]; sprayed at 250 ppm

CC[S+]([O-])CCNC(=O)c1ccc(C2=NOC(c3cc(C(F)(F)F)cc(C(F)(F)F)c3)(C(F)(F)F)C2)c2ccccc12 (stereo not drawn) [Compound 98]
very good to excellent: [1] | [2] | [3]; sprayed at 50 ppm

CCS(=O)(=O)CCNC(=O)c1ccc(C2=NOC(c3cc(C(F)(F)F)cc(C(F)(F)F)c3)(C(F)(F)F)C2)c2ccccc12 (stereo not drawn) [Compound 99]
very good to excellent: [1] | [2] | [3]; sprayed at 50 ppm

CCNC(=O)CNC(=O)c1ccc(C2=NOC(c3cc(C(F)(F)F)cc(C(F)(F)F)c3)(C(F)(F)F)C2)c2ccccc12 (stereo not drawn) [Compound 100]
very good to excellent: [1] | [2] | [3]; sprayed at 50 ppm

CCCNC(=O)CNC(=O)c1ccc(C2=NOC(c3cc(C(F)(F)F)cc(C(F)(F)F)c3)(C(F)(F)F)C2)c2ccccc12 (stereo not drawn) [Compound 101]
very good to excellent: [1] | [2] | [3]; sprayed at 50 ppm

CC(C)CNC(=O)CNC(=O)c1ccc(C2=NOC(c3cc(C(F)(F)F)cc(C(F)(F)F)c3)(C(F)(F)F)C2)c2ccccc12 (stereo not drawn) [Compound 102]
very good to excellent: [1] | [2] | [3]; sprayed at 50 ppm

CC(C)(C)CNC(=O)CNC(=O)c1ccc(C2=NOC(c3cc(C(F)(F)F)cc(C(F)(F)F)c3)(C(F)(F)F)C2)c2ccccc12 (stereo not drawn) [Compound 103]
very good to excellent: [1] | [2] | [3]; sprayed at 50 ppm

CNC(=O)CNC(=O)c1ccc(C2=NOC(c3cc(C(F)(F)F)cc(C(F)(F)F)c3)(C(F)(F)F)C2)c2ccccc12 (stereo not drawn) [Compound 105]
very good to excellent: [1] | [2] | [3]; sprayed at 50 ppm

CCCNC(=O)CNC(=O)c1ccc(C2=NOC(c3cc(Cl)cc(C(F)(F)F)c3)(C(F)(F)F)C2)c2ccccc12 (stereo not drawn) [Compound 117]
very good to excellent: [1] | [2] | [3]; sprayed at 50 ppm | [3]; sprayed at 250 ppm

CC(C)CNC(=O)CNC(=O)c1ccc(C2=NOC(c3cc(Cl)cc(C(F)(F)F)c3)(C(F)(F)F)C2)c2ccccc12 (stereo not drawn) [Compound 118]
very good to excellent: [1] | [2] | [3]; sprayed at 250 ppm
